The values below come from patent US9890133B2 (priority 2011, dated 2018).

The data set can be described thus: in vitro. Conditions: human.

≈ marks a conversion by molar mass, not a printed value.

`CC(=O)Nc1ccc([N+](=O)[O-])c2c1C(=O)C1(N)c3ccc(C(C)C)cc3OC21O` (centres unmarked) [Example 109, N-(9b-Amino-4b-hydroxy-7-isopropyl-4-nitro-10-oxo-9b,10-dihydro-4bH-5-oxa-indeno[2,1-a]inden-1-yl)-acetamide] came in with a CC50 (Picorana CC50) greater than 50 µg/mL. Turning to `COc1cc(C(=O)NC23C(=O)c4c(N)cccc4C2(O)Oc2cc(C(C)C)ccc23)nc2ccccc12` (centres unmarked) [Example 247, N-(1-Amino-4b-hydroxy-7-isopropyl-10-oxo-9b,10-dihydro-4bH-benzo[d]indeno[1,2-b]furan-9b-yl)-4-methoxyquinoline-2-carboxamide], the CC50 was greater than 10 µg/mL. The CC50 (Picorana CC50) was found to be 20 µg/mL (≈ 40.4 µM). Take `CC(C)c1ccc2c(c1)OC1(O)c3cccc(N(C)C)c3C(=O)C21O` (centres unmarked) [Example 151, 1-(Dimethylamino)-4b,9b-dihydroxy-7-isopropyl-4bH-benzo[d]indeno[1,2-b]-furan-10(9bH)-one]: the CC50 (Picorana CC50) amounted to 1.52 µg/mL (≈ 4.48 µM). In turn, `CC(=O)NC12Oc3cc(C(C)C)ccc3C1(NC(C)=O)C(=O)c1ccccc12` (centres unmarked) [Example 119] showed a CC50 (Picorana CC50) of 38.2 µg/mL (≈ 101 µM). On to `CC(C)c1ccc2c(c1)OC1(O)c3cccc(N)c3C(=O)C21NC(=O)c1ccc(-c2ccccc2)cc1` (centres unmarked) [Example 172], for which the CC50 was greater than 10 µg/mL. The molecule `CCCCc1cn(C23C(=O)c4c(N)cccc4C2(O)Oc2cc(C(C)C)ccc23)nn1` (centres unmarked) [Example 196, 1-amino-9b-(4-butyl-1H-1,2,3-triazol-1-yl)-4b-hydroxy-7-isopropyl-4bH-indeno[1,2-b]benzofuran-10(9bH)-one] gave a CC50 of 16.2 µg/mL (≈ 38.7 µM). The molecule further displayed a CC50 (Picorana CC50) of 48.5 µg/mL (≈ 116 µM). `COc1ccc(NC(=O)NC23C(=O)c4c(N)cccc4C2(O)Oc2cc(C(C)C)ccc23)cc1` (centres unmarked) [Example 162] displayed a CC50 greater than 10 µg/mL. `CC(C)c1ccc2c(c1)OC1(O)c3ccccc3C(=O)C21NC(=O)Cc1nnn[nH]1` (centres unmarked) [Example 220, N-(4b-Hydroxy-7-isopropyl-10-oxo-9b,10-dihydro-4bH-benzo[d]indeno[1,2-b]furan-9b-yl)-2-(1H-tetrazol-5-yl)acetamide] came in with a CC50 greater than 10 µg/mL. In addition, where the note is “Picorana CC50”, the CC50 was greater than 50 µg/mL.

In turn, `CC(C)c1ccc2c(c1)OC1(O)c3ccccc3C(=O)C21NC(=O)c1nc[nH]n1` (centres unmarked) [Example 222, N-(4b-Hydroxy-7-isopropyl-10-oxo-9b,10-dihydro-4bH-benzo[d]indeno[1,2-b]furan-9b-yl)-1H-1,2,4-triazole-3-carboxamide] came in with a CC50 greater than 10 µg/mL. Also, under “Picorana CC50”, the CC50 stood at 39.4 µg/mL (≈ 101 µM). `CC(C)c1cc(C(C)C)c2c(c1)C1(O)C(=O)c3c(N)cccc3C1(O)O2` (centres unmarked) [Example 157, 1-Amino-4b,9b-dihydroxy-6,8-diisopropyl-4bH-benzo[d]indeno[1,2-b]furan-10(9bH)-one] came in with a CC50 of 28.5 µg/mL (≈ 80.6 µM). This molecule also displayed a CC50 (Picorana CC50) greater than 100 µg/mL.

Regarding `CCCCCCNC12C(=O)c3ccccc3C1(O)Oc1cc(C(C)C)ccc12` (centres unmarked) [Example 67, 9b-Hexylamino-4b-hydroxy-7-isopropyl-4b,9b-dihydro-5-oxa-indeno[2,1-a]inden-10-one], the CC50 (Picorana CC50) was 9.42 µg/mL (≈ 24.8 µM). As to `CC(C)c1ccc2c(c1)OC1(O)c3cccc(N)c3C(=O)C21NC(=O)c1sc2cc(F)ccc2c1Cl` (centres unmarked) [Example 269, N-(1-Amino-4b-hydroxy-7-isopropyl-10-oxo-9b,10-dihydro-4bH-indeno[1,2-b]benzofuran-9b-yl)-3-chloro-6-fluorobenzo[b]thiophene-2-carboxamide], the CC50 was greater than 10 µg/mL.

`CC(C)c1ccc2c(c1)OC1(O)c3ccccc3C(=O)C21NC(=O)c1ccncn1` (centres unmarked) [Example 219, N-(4b-Hydroxy-7-isopropyl-10-oxo-9b,10-dihydro-4bH-indeno[1,2-b]benzofuran-9b-yl)pyrimidine-4-carboxamide]: the CC50 was greater than 10 µg/mL. Besides, the CC50 (Picorana CC50) is 45.1 µg/mL (≈ 112 µM). Turning to `CC(C)c1ccc2c(c1)OC1(O)c3cccc(N)c3C(=O)C21NC(=O)c1c2ccccc2nc2ccccc12` (centres unmarked) [Example 241, N-(1-Amino-4b-hydroxy-7-isopropyl-10-oxo-9b,10-dihydro-4bH-benzo[d]indeno[1,2-b]furan-9b-yl)acridine-9-carboxamide], the CC50 is greater than 10 µg/mL. The same molecule came in with a CC50 (Picorana CC50) of 7.86 µg/mL (≈ 15.2 µM). As for `Cc1cc2c(cc1C)C1(O)C(=O)c3ccccc3C1(O)N2` (centres unmarked) [Example 106, 4b,9b-Dihydroxy-7,8-dimethyl-4b,5-dihydroindeno[1,2-b]indol-10(9bH)-one], the CC50 (Picorana CC50) came to 3.53 µg/mL (≈ 12.5 µM). Under “Picorana CC50”, `CC(C)c1ccc2c(c1)OC1(C)c3ccccc3C(=O)C21O` (centres unmarked) [Example 134, 9b-Hydroxy-7-isopropyl-4b-methyl-4bH-indeno[1,2-b]benzofuran-10(9bH)-one] yielded a CC50 of 6.69 µg/mL (≈ 22.7 µM). In the case of `CC(C)c1ccc2c(c1)OC1(O)c3ccccc3C(C)C21O` (centres unmarked) [Example 136, 7-Isopropyl-10-methyl-9b,10-dihydro-4bH-indeno[1,2-b]benzofuran-4b,9b-diol], the CC50 (Picorana CC50) came to 7.8 µg/mL (≈ 26.3 µM). On the same count and under the same terms, next, `CNC(=O)OC12Oc3cc(C(C)C)ccc3C1(NC(C)=O)C(=O)c1ccccc12` (centres unmarked) [Example 118, 9b-Acetamido-7-isopropyl-10-oxo-9b,10-dihydro-4bH-benzo[d]indeno[1,2-b]furan-4b-yl methylcarbamate]: greater than 50 µg/mL. `CC(C)c1ccc2c(c1)OC1(O)c3ccccc3C(=O)C21NC(=O)c1cc(-c2ccccc2)n[nH]1` (centres unmarked) [Example 229, N-(4b-hydroxy-7-isopropyl-10-oxo-9b,10-dihydro-4bH-indeno[1,2-b]benzofuran-9b-yl)-3-phenyl-1H-pyrazole-5-carboxamide] came in with a CC50 of 4.51 µg/mL (≈ 9.69 µM). This molecule also yielded a CC50 (Picorana CC50) of 8.63 µg/mL (≈ 18.5 µM). Molecule `O=C1c2ccccc2C2(O)Oc3ccccc3C12NS(=O)(=O)C(F)(F)F` (centres unmarked) [Example 178, 1,1,1-Trifluoro-N-(4b-hydroxy-10-oxo-9b,10-dihydro-4bH-benzo[d]indeno[1,2-b]furan-9b-yl)methanesulfonamide] had a CC50 greater than 10 µg/mL.

`CC(C)c1ccc2c(c1)OC1(O)c3cccc(N)c3C(=O)C21NC(=O)Nc1ccc(F)cc1` (centres unmarked) [Example 164, 1-(1-Amino-4b-hydroxy-7-isopropyl-10-oxo-9b,10-dihydro-4bH-indeno[1,2-b]benzofuran-9b-yl)-3-(4-fluorophenyl)urea]: the CC50 was greater than 10 µg/mL.

On to `COC(=O)OC12Oc3cc(C(C)C)ccc3C1(NC(C)=O)C(=O)c1ccccc12` (centres unmarked) [Example 111, 9b-Acetamido-7-isopropyl-10-oxo-9b,10-dihydro-4bH-indeno[1,2-b]benzofuran-4b-yl methyl carbonate], for which the CC50 (Picorana CC50) turned out to be 43.6 µg/mL (≈ 110 µM). The molecule `CCC(=O)NC12Oc3cc(C(C)C)ccc3C1(NC(=O)CC)C(=O)c1ccccc12` (centres unmarked) [Example 124] had a CC50 (Picorana CC50) greater than 50 µg/mL. `CCOP(=O)(NC12C(=O)c3c(N)cccc3C1(O)Oc1cc(C(C)C)ccc12)OCC` (centres unmarked) [Example 169, Diethyl (1-amino-4b-hydroxy-7-isopropyl-10-oxo-9b,10-dihydro-4bH-indeno[1,2-b]benzofuran-9b-yl)phosphoamidate] displayed a CC50 greater than 10 µg/mL. Molecule `CC(C)c1ccc2c(c1)OC1(O)c3cccnc3C(=O)C21O` (centres unmarked) [Example 126, 4b,9b-Dihydroxy-7-isopropyl-4bH-benzofuro[2′,3′:3,4]cyclopenta[1,2-b]pyridin-10(9bH)-one] yielded a CC50 (Picorana CC50) of 47.1 µg/mL (≈ 158 µM).

In the case of `CC(=O)NC12C(=O)c3ccccc3C1(OC(=O)C(C)(C)C)Oc1cc(C(C)C)ccc12` (centres unmarked) [Example 117, 9b-Acetamido-7-isopropyl-10-oxo-9b,10-dihydro-4bH-benzo[d]indeno[1,2-b]furan-4b-yl pivalate], for the setting “Picorana CC50”, the CC50 was greater than 50 µg/mL. Consider `CO/N=C1/c2ccccc2C2(O)Oc3cc(C(C)C)ccc3C12O` (centres unmarked) [Example 88, 4b,9b-Dihydroxy-7-isopropyl-4bH-indeno[1,2-b]benzofuran-10(9bH)-one O-methyl oxime], for which, where the note is “Picorana CC50”, the CC50 came out at 8.16 µg/mL (≈ 25.1 µM). As for `CC(C)c1ccc2c(c1)OC1(O)c3cccc(NCc4ccccc4)c3C(=O)C21O` (centres unmarked) [Example 132, 1-(Benzylamino)-4b,9b-dihydroxy-7-isopropyl-4bH-indeno[1,2-b]benzofuran-10(9bH)-one], the CC50 (Picorana CC50) amounted to 0.72 µg/mL (≈ 1.79 µM). `Cc1onc(-c2c(Cl)cccc2Cl)c1C(=O)NC12C(=O)c3ccccc3C1(O)Oc1cc(C(C)C)ccc12` (centres unmarked) [Example 236, 3-(2,6-dichlorophenyl)-N-(4b-hydroxy-7-isopropyl-10-oxo-9b,10-dihydro-4bH-benzo[d]indeno[1,2-b]furan-9b-yl)-5-methylisooxazole-4-carboxamide] registered a CC50 greater than 10 µg/mL. The molecule also returned a CC50 (Picorana CC50) of 21.4 µg/mL (≈ 38.9 µM). With `CC(=O)NC12C(=O)c3c(Br)cccc3C1(O)Oc1cc(C(C)C)ccc12` (centres unmarked) [Example 137, N-(1-Bromo-4b-hydroxy-7-isopropyl-10-oxo-9b,10-dihydro-4bH-indeno[1,2-b]benzofuran-9b-yl)acetamide], the CC50 (Picorana CC50) was found to be 40 µg/mL (≈ 96 µM). With `Cc1cc(C)n2ncc(C(=O)NC34C(=O)c5c(N)cccc5C3(O)Oc3cc(C(C)C)ccc34)c2n1` (centres unmarked) [Example 282, N-(1-Amino-4b-hydroxy-7-isopropyl-10-oxo-9b,10-dihydro-4bH-indeno[1,2-b]benzofuran-9b-yl)-5,7-dimethylpyrazolo[1,5-a]pyrimidine-3-carboxamide], the CC50 is greater than 10 µg/mL. Moreover, the CC50 (Picorana CC50) stood at 6.78 µg/mL (≈ 14 µM). Under “Picorana CC50”, `C=C1c2ccccc2C2(OC)Oc3cc(C(C)C)ccc3C12O` (centres unmarked) [Example 129, 7-Isopropyl-4b-methoxy-10-methylene-9b,10-dihydro-4bH-indeno[1,2-b]benzofuran-9b-ol] displayed a CC50 of 6.79 µg/mL (≈ 22 µM). `CC(C)c1ccc2c(c1)OC1(O)c3ccccc3C(=O)C21NC(=O)c1cnn(-c2ccccc2)c1C(F)(F)F` (centres unmarked) [Example 211] displayed a CC50 greater than 10 µg/mL.

As to `CC(C)c1ccc2c(c1)OC1(O)c3ccccc3C(=O)C21NC(=O)[C@@H](Cc1ccccc1)NC(=O)OC(C)(C)C` (stereo partly drawn) [Example 185, tert-Butyl(2R)-1-(4b-hydroxy-7-isopropyl-10-oxo-9b,10-dihydro-4bH-benzo[d]indeno[1,2-b]furan-9b-ylamino)-1-oxo-3-phenylpropan-2-ylcarbamate], the CC50 was greater than 10 µg/mL. The same molecule registered a CC50 (Picorana CC50) of 7.18 µg/mL (≈ 13.2 µM). In turn, `COc1c(C(=O)NC23C(=O)c4c(N)cccc4C2(O)Oc2cc(C(C)C)ccc23)cnc2ccc(F)cc12` (centres unmarked) [Example 267, N-(1-Amino-4b-hydroxy-7-isopropyl-10-oxo-9b,10-dihydro-4bH-indeno[1,2-b]benzofuran-9b-yl)-6-fluoro-4-methoxyquinoline-3-carboxamide] yielded a CC50 of 0.86 µg/mL (≈ 1.67 µM). Under “Picorana CC50”, this molecule registered a CC50 of 0.87 µg/mL (≈ 1.69 µM).
